Data set [1] has as its system S. epidermidis ATCC 12228. The data set is described as follows: Antibacterial screening, broth microdilution (MIC/MBC). Type of data set: cell-based, Staphylococcus epidermidis. The conditions noted are these: for MIC / MBC: Staphylococcus epidermidis, ATCC12228; for MIC: S. epidermidis ATCC 12228, MHB, 24 h, 35 °C, read-out: MIC; for MBC: read-out: MBC. The protocol:
(§1) The antimicrobial activities of a series of compounds 1–5 were tested through the utilization of seven reference species, encompassing both Gram-positive (Staphylococcus aureus ATCC 29213, Staphylococcus epidermidis ATCC 12228, Micrococcus luteus ATCC 10240) and Gram-negative (Escherichia coli ATCC 25922, Klebsiella pneumoniae ATCC 13883, Proteus mirabilis ATCC 12453, Acinetobacter baumannii ATCC 19606) bacteria as model microorganisms. For this purpose, microbial suspensions were prepared in sterile saline (0.85% NaCl) with an optical density of 0.5 McFarland standard, yielding a concentration of 150 × 10^6 CFU/mL (CFU, colony-forming units). All of the stock solutions of the tested compounds were dissolved in DMSO. Amoxicillin (Glentham Life Sciences Ltd., Corsham, UK) was used as a positive control.
The MIC values of the tested compounds were determined by serial twofold dilutions of 1–5 in Mueller Hinton Broth (MHB, Biomaxima, Lublin, Poland). The range of final 1–5 concentrations used was from 0.49 up to 1000 μg/mL, and for amoxicillin from 0.12 up to 250 μg/mL in the 96-well microtiter plates (Medlab, Raszyn, Poland), starting with 98 μL MHB and 2 μL bacterial inoculum added to each well. Positive controls consisted of 100 μL MHB in each well with the tested compounds at the same concentration range. The negative controls consisted of 100 μL of MHB only. Each set of tests and controls was established with three replicates. The microtiter plates were then subjected to an incubation period of 24 h at a temperature of 35 ± 2 °C. After incubation, the optical density of the microbial growth was measured at a wavelength of 600 nm using a microplate reader, the Biotek Elx800 (BioTek Instruments, Inc., Winooski, VT, USA). The MIC value was defined as the lowest concentration of the tested compound at which there was no visible growth of the tested microorganisms. The determination of the MIC values was achieved by employing the broth microdilution method, in accordance with the recommendations of the European Committee on Antimicrobial Susceptibility Testing (EUCAST). […] Then, the MHA plates were incubated overnight at 35 ± 2 °C. […] The MIC and MBC values were reported in μg/mL, according to the EUCAST reference.
A general note: Broth dilution looks for growth in wells or tubes with falling amounts of substance.

The nature of data set [2]: Cytotoxicity, microculture tetrazolium (MTT) test, VERO. Format: cell-based. The note with it: African green monkey, ATCC CCL-81; VERO (normal kidney cells), 24 h incubation, MTT; ± SD. How it is done:
(§2) The cytotoxicity of biaryl monophosphines was tested in vitro in normal (VERO) and cancer-derived (H1HeLa) cells after 24 h of incubation using a microculture tetrazolium test. Table 2 presents the CC50 (concentrations decreasing the cellular viability by 50%) values calculated from dose–response cytotoxicity curves (Figure 4).
(§3) Cytotoxicity was evaluated using a microculture tetrazolium test as previously described, and details can be found in the Supplementary Materials. The cell lines used in the presented study were acquired from the American Type Culture Collection (ATCC); the one used for cytotoxicity testing included non-cancerous VERO (kidney; ATCC CCL-81) cells and cancer-originating H1HeLa (cervical adenocarcinoma; ATCC CRL-1958) cells. VERO cells were cultured in Dulbecco’s Modified Eagle’s Medium (DMEM; Corning, Tewksbury, MA, USA), while Eagle’s Minimum Essential Medium (MEM; Corning) was used for H1HeLa. Antibiotics (penicillin–streptomycin solution, Corning) and fetal bovine serum (FBS, Corning) were added to cell media. Cells were incubated in a 5% CO2 atmosphere at 37 °C (CO2 incubator, Panasonic Healthcare Co., Tokyo, Japan). Briefly, the monolayers of VERO or H1HeLa cells in 96-well plates (Falcon, Corning) were treated with serial dilutions of selected compounds for 24 h. After this, the medium was removed, the plates were washed with phosphate buffered saline (PBS; Corning), a 10% solution of (3-(4,5-dimethylthiazol-2-yl)-2,5-diphenyltetrazolium bromide (MTT; Sigma-Aldrich, St. Louis, MO, USA) (5 mg/mL) in FBS-free cell media was added, and the incubation continued for the next 4 h. Subsequently, the precipitated formazan crystals were dissolved, and after overnight incubation at 37 °C, the Synergy H1 Multi-Mode Microplate Reader (BioTek Instruments, Inc., Winooski, VT, USA) with Gen5 software (ver. 3.09.07; BioTek Instruments, Inc.) was used for absorbance acquisition (540 and 620 nm). Data was exported to GraphPad Prism (ver. 10) to calculate the CC50 values (50% cytotoxic concentration) from dose–response curves.
(§4) Aromaticity Tuning in Biaryl Monophosphines and Their Derivatives […]
(§5) Cell line maintenance and in vitro experiments
(§6) The cytotoxicity of selected biaryl monophosphines was evaluated in vitro towards normal VERO (ATCC, CCL-81) cells and cancer-derived cell line H1HeLa (cervical adenocarcinoma; ATCC (American Type Culture Collection) CRL-1958) using 3-(4,5-dimethylthiazol-2-yl)-2,5-diphenylte-trazolium bromide (MTT) based protocol.
(§7) Media used for in vitro culturing included Dulbecco's Modified Eagle's Medium (DMEM, Corning, Tewksbury, MA, USA) used for VERO cells and Modified Eagle Medium (MEM, Corning) used for H1HeLa. Cell media used in the experiments were supplemented with antibiotics (Penicil-lin-Streptomycin Solution, Corning) and fetal bovine serum (FBS, Corning) – 10% (cell passaging) and 2% (cell maintenance and experiments). Phosphate-buffered saline (PBS) and trypsin were bought from Corning, whereas MTT (3-(4,5-dimethylthiazol-2-yl)-2,5-diphenyltetrazolium bromide) from Sigma (Sigma-Aldrich, St. Louis, MO, USA). SDS was purchased from PanReac Applichem (Darmstadt, Germany). Incubation was carried out in a 5% CO2 atmosphere at 37°C (CO2 incubator, Panasonic Healthcare Co., Tokyo, Japan).
(§8) Concentrations of cells for passaging were as follows: VERO – 1.5*10^5 cells/mL, H1HeLa – 2*10^5 cells/mL. Routine observations of cell cultures and experiments were carried out using an in-verted microscope (CKX41, Olympus Corporation, Tokyo, Japan) equipped with a ca mera (Moti-cam 3+, Motic, Hong Kong), and the results were recorded (Motic Images Plus 2.0, Motic).
(§9) Stock solutions of biaryl monophosphines were prepared by dissolving the samples in cell culture grade DMSO (PanReac Applichem).
(§10) Evaluation of cytotoxicity
(§11) Cytotoxicity was tested using an MTT-based protocol. The cells were passaged into 96-well plates (Falcon, TC-treated, Corning) and, after overnight incubation, treated with serial dilutions of […]

The test system of a further data set is VERO cells. The description is as above. Format: cell-based. The conditions noted are these: VERO, 24 h, microscopy. The protocol:
as §2, §3, §4, §5, §6, §7, §8, §9, §10, §11

A further data set has as its system Gram-positive bacteria. In words: Antibacterial screening, summary over the three Gram-positive reference species. Format: cell-based. The note with it: range over three Gram-positive reference species. The protocol: as §1
The MIC values of the tested compounds were determined by serial twofold dilutions of 1–5 in Mueller Hinton Broth (MHB, Biomaxima, Lublin, Poland). The range of final 1–5 concentrations used was from 0.49 up to 1000 μg/mL, and for amoxicillin from 0.12 up to 250 μg/mL in the 96-well microtiter plates (Medlab, Raszyn, Poland), starting with 98 μL MHB and 2 μL bacterial inoculum added to each well. […] After incubation, the optical density of the microbial growth was measured at a wavelength of 600 nm using a microplate reader, the Biotek Elx800 (BioTek Instruments, Inc., Winooski, VT, USA). […]

Usually MIC stands for the least concentration at which growth counts as inhibited. The term MBC denotes the lowest tested concentration that kills the bacteria rather than only halting them. As usually defined, the CC50 is the concentration giving 50% cytotoxicity.

In brackets after ≈: the same amount, converted by molar mass.

Turning to `COc1cc(OC)c(-c2c(P(=O)(C3CCCCC3)C3CCCCC3)c(OC)c3ccccc3c2OC)c(OC)c1` [Compound 1, Dicyclohexyl[1,4-dimethoxy-3-(2,4,6-trimethoxyphenyl)naphthalen-2-yl]phosphane oxide], in data set [1] (S. epidermidis ATCC 12228), the “type of activity (bactericidal or bacteriostatic)” value is listed as “bactericidal” and the MBC stood at 250 µg/mL (≈ 441 µM). Moreover, the MIC in data set [1] was in the range of 15.6 to 31.2 µg/mL (≈ 27.6 to 55.1 µM). Moreover, in data set [2], the cytotoxic concentration (CC50) at 24 h worked out at 9.82 ± 0.59 µg/mL. In the data set on VERO cells (12.5 µg/mL), the “influence on morphology of the cellular monolayer” value (“influence on morphology” for short) is on record as “some fibroblast-shaped VERO cells were noticeable”.

As to `COc1ccccc1-c1c(P(=O)(C2CCCCC2)C2CCCCC2)c(OC)c2ccccc2c1OC` [Compound 2, Dicyclohexyl[1,4-dimethoxy-3-(2-methoxyphenyl)naphthalen-2-yl]phosphane oxide], the MIC in data set [1] was 3.91 to 7.89 µg/mL (≈ 7.72 to 15.6 µM); against Gram-positive bacteria, 1.95 to 15.6 µg/mL (≈ 3.85 to 30.9 µM). Besides, the MBC (in data set [1] (S. epidermidis ATCC 12228); against Gram-positive bacteria) was > 1000 µg/mL throughout. The CC50 at 24 h in data set [2] came to 7.78 ± 0.44 µg/mL. Further, the “influence on morphology” value in the data set on VERO cells (12.5 µg/mL) is on record as “some fibroblast-shaped VERO cells were noticeable”.

With `COc1cc(OC)c(-c2c(P(=O)(C3CCCCC3)C3CCCCC3)c(O)c3ccccc3c2OC)c(OC)c1` [Compound 3, 2-(Dicyclohexylphosphoryl)-4-methoxy-3-(2,4,6-trimethoxyphenyl)naphthalen-1-ol], in data set [1], the MIC was determined as 31.2 µg/mL (≈ 56.5 µM). Besides, the MBC in data set [1] (S. epidermidis ATCC 12228) is > 1000 µg/mL. For the same molecule, the CC50 at 24 h in data set [2] came to 3.11 ± 0.14 µg/mL. For the same molecule, the “influence on morphology” value is “the cellular monolayer resembled the control cells” in the data set with VERO cells (1.6 µg/mL), “only a fraction of shrunken cells visible” with VERO cells (3.1 µg/mL), “most of the cells showed cytotoxic damage” in the data set with VERO cells (6.3 µg/mL) and “destroyed the cellular monolayer” in the data set on VERO cells (12.5 µg/mL).

(Values after publication PMC12525867, “Aromaticity Tuning in Biaryl Monophosphines and Their Derivatives” (Molecules, 2025).)
